Test results as given in publication PMC10817945, “Design of a novel analogue peptide with potent antibiofilm activities against Staphylococcus aureus based upon a sapecin B-derived peptide” (Scientific Reports, 2024).
Values after ≈ are worked out from the molar mass of the structure shown. Like-named read-outs stand apart in the source and are kept apart here. Non-standard residues stand in square brackets, D forms with d. Residues, ends and D or L forms follow the SMILES beside them.

Columns and labels:
in vitro [1] = settings: human
S. aureus strains = format: cell-based, Staphylococcus aureus; settings: for inhibition of biofilm formation: strains, 24 h
Protocol: To investigate the inhibitory effect of KLK and mKLK peptides on bacterial surface attachment and biofilm formation, the bacterial suspension in TSB with a concentration of 10^7 CFU/ml was prepared from overnight culture. An aliquot of 100 μl of the bacterial suspension was added to wells of 96-well plates containing 100 μl of the peptides solution with concentrations of 1×, 1/2× and 1/4× MIC, resulting in the final peptides concentrations of 1/2×, 1/4× and 1/8× MIC. To investigate the inhibitory effect of the peptides on surface attachment the incubation was performed at 37 °C for 2 h and to evaluate their inhibitory activity on biofilm formation the incubation was performed at 37 °C for 24 h. The wells containing only TSB medium were used as negative controls. After incubation, the contents of the wells were removed and washed three times with PBS and the wells were stained with 200 μl of 0.1% crystal violet for 20 min. The plates were washed again and excess dye was removed. A volume of 200 μl of 95% ethanol was added to each well for 20 min and absorbance was measured at 570 nm by a microplate reader.

in vitro [2] = settings: human; remark: listed apart in the source
Protocol: To quantitatively investigate the cytotoxicity of mKLK and KLK peptides, the 2,3-bis-(2-methoxy-4-nitro-5-sulfophenyl)-2H-tetrazolium-5-carboxanilide (XTT) (cell proliferation kit II, Roche, Germany) assay was performed on human embryonic kidney (HEK)-293 cell line, as described previously[47], The HEK-293 cells were grown in DMEM supplemented with 4 µM glutamine, 10% fetal bovine serum (FBS), and 100 units/ml penicillin/streptomycin at 37 °C in a 5% CO2 and 95% air atmosphere. Following incubation for 24 h, the culture medium was discarded and fresh medium containing different concentrations of KLK and mKLK peptides (1.56, 3.12, 6.25, 12.5, and 25 µM) was added and incubated at 37 °C for 20 min. Then, the culture medium was discarded and 100 µl of XTT reagent mixture was added and incubated for 4 h. Finally, the absorbance was measured at 570 nm using an ELISA plate reader (Anthos 2020, England). The percentage of cell inhibition was calculated using the following formula: % Cell inhibition = Test Abs/Control Abs × 100.

[3] = 50% human serum, 37 °C, 2 h, reverse-phase HPLC
Protocol: To assess the serum stability of mKLK peptide to proteolytic degradation, the D-form mKLK peptide (0.5 mg) was dissolved in 4 ml of 50% (v/v) of serum from male healthy donors in PBS and incubated at 37 °C for 0, 60, and 120 min. After each incubation time, the samples were analyzed by reverse-phase HPLC on a Jupiter proteo C18 column (250 × 4.6 mm) and monitored with a fluorescence detector (wavelength: 560 nm). Analysis of the samples was performed over a linear gradient of 10–60% acetonitrile containing 0.08% trifluoroacetic acid for 50 min at a flow rate of 1 ml/min[48].

S. aureus ATCC 25923 = format: cell-based, Staphylococcus aureus; settings: ATCC 25923, 2 h
Protocol: To test the retinue of antimicrobial activity of mKLK in human serum, MIC of the serum-treated peptide was determined against S. aureus ATCC 25923 using microdilution broth assay. […] The MIC was determined as the lowest concentration of peptide at which no visible growth is seen[49].

S. aureus = experiment: Effect of 1/2× MIC on bacterial growth; format: cell-based, Staphylococcus aureus
Description: To ensure that the antibiofilm property of mKLK is independent of its ability to inhibit bacterial growth, the effect of 1/2× MIC on bacterial growth was examined.

[4] = ATCC25923, 1/2MIC, control 2.302±0.006
[5] = ATCC25923, 1/4MIC, control 2.302±0.006
[6] = ATCC25923, 1/8MIC, control 2.302±0.006
[7] = MRSA-1, 1/2MIC, control 2.115±0.01
[8] = MRSA-1, 1/4MIC, control 2.115±0.01
[9] = MRSA-1, 1/8MIC, control 2.115±0.01
[10] = MRSA-2, 1/2MIC, control 2.354±0.04
[11] = MRSA-2, 1/4MIC, control 2.354±0.04
[12] = MRSA-2, 1/8MIC, control 2.354±0.04
[13] = MRSA-3, 1/2MIC, control 1.541±0.02
[14] = MRSA-3, 1/4MIC, control 1.541±0.02
[15] = MRSA-3, 1/8MIC, control 1.541±0.02
[16] = MSSA-1, 1/2MIC, control 2.190±0.01
[17] = MSSA-1, 1/4MIC, control 2.190±0.01
[18] = MSSA-1, 1/8MIC, control 2.190±0.01
[19] = MSSA-2, 1/2MIC, control 1.802±0.02
[20] = MSSA-2, 1/4MIC, control 1.802±0.02
[21] = MSSA-2, 1/8MIC, control 1.802±0.02

SMILES	hemolysis at 1 h, 1.56 µM (in vitro [1]) [%]	hemolysis at 1 h, 3.12 µM (in vitro [1]) [%]	hemolysis at 1 h, 6.25 µM (in vitro [1]) [%]	hemolysis at 1 h, 12.5 µM (in vitro [1]) [%]	hemolysis at 1 h, 25 µM (in vitro [1]) [%]	hemolysis at 1 h, 50 µM (in vitro [1]) [%]	hemolysis at 1 h, 75 µM (in vitro [1]) [%]	hemolysis at 1 h, 100 µM (in vitro [1]) [%]	hemolysis at 1 h, 150 µM (in vitro [1]) [%]	hemolysis at 1 h, 200 µM (in vitro [1]) [%]	crystal violet absorbance at 570 nm, biofilm formation, Mean±SD (S. aureus strains; [4])	crystal violet absorbance at 570 nm, biofilm formation, Mean±SD (S. aureus strains; [5])	crystal violet absorbance at 570 nm, biofilm formation, Mean±SD (S. aureus strains; [6])	crystal violet absorbance at 570 nm, biofilm formation, Mean±SD (S. aureus strains; [7])	crystal violet absorbance at 570 nm, biofilm formation, Mean±SD (S. aureus strains; [8])	crystal violet absorbance at 570 nm, biofilm formation, Mean±SD (S. aureus strains; [9])	crystal violet absorbance at 570 nm, biofilm formation, Mean±SD (S. aureus strains; [10])	crystal violet absorbance at 570 nm, biofilm formation, Mean±SD (S. aureus strains; [11])	crystal violet absorbance at 570 nm, biofilm formation, Mean±SD (S. aureus strains; [12])	crystal violet absorbance at 570 nm, biofilm formation, Mean±SD (S. aureus strains; [13])	other results
CC(C)C[C@@H](NC(=O)[C@H](N)CCCCN)C(=O)N[C@H](CCCCN)C(=O)N[C@H](CC(C)C)C(=O)N[C@H](CC(C)C)C(=O)N[C@H](CC(C)C)C(=O)N[C@H](CC(C)C)C(=O)N[C@H](CC(C)C)C(=O)N[C@H](CCCCN)C(=O)N[C@H](CC(C)C)C(=O)N[C@H](CCCCN)C(N)=O [KLK] (H-[dK][dL][dK][dL][dL][dL][dL][dL][dK][dL][dK]-NH2; N-terminus assumed)	10.4	18.3	27.1	34.2	42.8	71.5	80.1	88.3	92.2	95.4	1.654±0.006	2.069±0.04	2.113±0.01	1.606±0.01	1.924±0.004	1.947±0.05	1.861±0.007	2.128±0.01	2.187±0.002	0.204±0.03	crystal violet absorbance at 570 nm, biofilm formation, Mean±SD (S. aureus strains; [14]): 1.739±0.002; crystal violet absorbance at 570 nm, biofilm formation, Mean±SD (S. aureus strains; [15]): 1.441±0.04; crystal violet absorbance at 570 nm, biofilm formation, Mean±SD (S. aureus strains; [16]): 1.609±0.03; crystal violet absorbance at 570 nm, biofilm formation, Mean±SD (S. aureus strains; [17]): 1.971±0.10; crystal violet absorbance at 570 nm, biofilm formation, Mean±SD (S. aureus strains; [18]): 2.007±0.13; crystal violet absorbance at 570 nm, biofilm formation, Mean±SD (S. aureus strains; [19]): 1.261±0.01; crystal violet absorbance at 570 nm, biofilm formation, Mean±SD (S. aureus strains; [20]): 1.627±0.01; crystal violet absorbance at 570 nm, biofilm formation, Mean±SD (S. aureus strains; [21]): 1.633±0.04; inhibition of biofilm formation (S. aureus strains; 2): 48-66%; inhibition of biofilm formation (S. aureus strains; 4): 9-11%; inhibition of biofilm formation (S. aureus strains; 8): 6-9%; IC50 at 20 min (in vitro [2]): 28.8 µM
CC(C)C[C@@H](NC(=O)[C@H](N)Cc1c[nH]c2ccccc12)C(=O)N[C@H](Cc1c[nH]c2ccccc12)C(=O)N[C@H](C)C(=O)N[C@H](CC(C)C)C(=O)N[C@H](CC(C)C)C(=O)N[C@H](CCCCN)C(=O)N[C@H](CC(C)C)C(=O)N[C@H](CC(C)C)C(=O)N[C@H](CCCCN)C(=O)N[C@H](CC(C)C)C(=O)N[C@H](CCCCN)C(N)=O [mKLK] (H-[dW][dL][dW][dA][dL][dL][dK][dL][dL][dK][dL][dK]-NH2; N-terminus assumed)	0	0.3	1.8	9.3	15.4	36.2	48.2	58.2	62.4	67.1	0.207±0.02	0.257±0.05	0.678±0.01	0.489±0.007	0.572±0.01	0.936±0.07	0.444±0.008	0.624±0.03	0.923±0.07	1.405±0.01	percentage of the peptide remaining [3]: 79%; MIC after serum treatment (S. aureus ATCC 25923): 4 µg/mL (≈ 2.62 µM); crystal violet absorbance at 570 nm, biofilm formation, Mean±SD (S. aureus strains; [14]): 0.322±0.02; crystal violet absorbance at 570 nm, biofilm formation, Mean±SD (S. aureus strains; [15]): 0.519±0.006; crystal violet absorbance at 570 nm, biofilm formation, Mean±SD (S. aureus strains; [16]): 0.236±0.03; crystal violet absorbance at 570 nm, biofilm formation, Mean±SD (S. aureus strains; [17]): 0.407±0.007; crystal violet absorbance at 570 nm, biofilm formation, Mean±SD (S. aureus strains; [18]): 0.622±0.02; crystal violet absorbance at 570 nm, biofilm formation, Mean±SD (S. aureus strains; [19]): 0.183±0.01; crystal violet absorbance at 570 nm, biofilm formation, Mean±SD (S. aureus strains; [20]): 0.225±0.01; crystal violet absorbance at 570 nm, biofilm formation, Mean±SD (S. aureus strains; [21]): 0.558±0.05; inhibition of biofilm formation (S. aureus strains; 2): 80-91%; inhibition of biofilm formation (S. aureus strains; 4): 76-89%; inhibition of biofilm formation (S. aureus strains; 8): 63-73%; effect on bacterial growth (S. aureus): did not affect the bacterial growth
